Experimental data taken from ChEMBL document CHEMBL1201862, “PubChem BioAssay data set” (2004).
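Results reflect a 48-hour exposure of cells in 96-well plates to compound at five concentrations. GI50 marks 50% less growth.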 Active and inactive are the calls of the source. Cut-off read from the data, not from the text of the source: active = GI50 up to about 1.1 µM and inactive = higher.

Legend:
Test in all cases: NCI tumour cell line growth inhibition, 48 h
ACHN = test system: ACHN
SF-539 = test system: SF-539
MDA-MB-435 = test system: MDA-MB-435
HCC 2998 = test system: HCC 2998
OVCAR-5 = test system: OVCAR-5
COLO 205 = test system: COLO 205
LOX IMVI = test system: LOX IMVI
UO-31 = test system: UO-31
SK-MEL-2 = test system: SK-MEL-2
NCI/ADR-RES = test system: NCI/ADR-RES
NCI-H522 = test system: NCI-H522
HCT-116 = test system: HCT-116
MDA-N = test system: MDA-N
IGROV-1 = test system: IGROV-1
T47D = test system: T47D
DU-145 = test system: DU-145
UACC-257 = test system: UACC-257
MDA-MB-231 = test system: MDA-MB-231
CAKI-1 = test system: CAKI-1
SR = test system: SR

Structure (SMILES) | GI50 (ACHN) | GI50 (SF-539) | GI50 (MDA-MB-435) | GI50 (HCC 2998) | GI50 (OVCAR-5) | GI50 (COLO 205) | GI50 (LOX IMVI) | GI50 (UO-31) | GI50 (SK-MEL-2) | GI50 (NCI/ADR-RES) | GI50 (NCI-H522) | GI50 (HCT-116) | GI50 (MDA-N) | GI50 (IGROV-1) | GI50 (T47D) | GI50 (DU-145) | GI50 (UACC-257) | GI50 (MDA-MB-231) | GI50 (CAKI-1) | GI50 (SR)
CC[C@@]1(O)C(=O)OCc2c1cc1n(c2=O)Cc2c-1nc1ccc(O)cc1c2CC[Si](C)(C)C | < 0.001 µM (active) | < 0.001 µM (active) | 0.00766 µM (active) | 0.0174 µM (active) | 0.0272 µM (active) | 0.149 µM (active) | < 0.001 µM (active) | 0.00497 µM (active) | 0.1 µM (active) | 0.0489 µM (active) | 0.00291 µM (active) | < 0.001 µM (active) | 0.0133 µM (active) | 0.0248 µM (active) | < 0.001 µM (active) | < 0.001 µM (active) | 0.00275 µM (active) | 0.187 µM (active) | < 0.001 µM (active) | < 0.001 µM (active)
O=C1OCC=C1COC1OC(CO)C(O)C(O)C1O (stereo not given) | > 100 µM (inactive) | > 100 µM (inactive) | > 100 µM (inactive) | > 100 µM (inactive) | > 100 µM (inactive) | > 100 µM (inactive) | > 100 µM (inactive) | > 100 µM (inactive) | > 100 µM (inactive) | > 100 µM (inactive) | 17.2 µM (inactive) | > 100 µM (inactive) | > 100 µM (inactive) | > 100 µM (inactive) | > 100 µM (inactive) | > 100 µM (inactive) | > 100 µM (inactive) | > 100 µM (inactive) | > 100 µM (inactive) | 36.2 µM (inactive)
Cc1cc(S(=O)(=O)NC2=NCc3nc4ccccc4n32)c(S)cc1Cl | 32.4 µM (inactive) | 20.7 µM (inactive) | 28.8 µM (inactive) | 17.2 µM (inactive) | 20.7 µM (inactive) | 19.4 µM (inactive) | 18.4 µM (inactive) | 26.4 µM (inactive) | 13.5 µM (inactive) | 19.6 µM (inactive) | 34.9 µM (inactive) | 18.3 µM (inactive) | 26 µM (inactive) | 24.8 µM (inactive) | 21.9 µM (inactive) | 31.2 µM (inactive) | 24.2 µM (inactive) | 23.5 µM (inactive) | 35.2 µM (inactive) | 20.9 µM (inactive)
CCOC(=O)C1(C(=O)OCC)CC(=O)[C@@]2(C1)OCC[C@H]1OC(=O)C[C@H]12 | > 100 µM (inactive) | > 100 µM (inactive) | > 100 µM (inactive) | > 100 µM (inactive) | > 100 µM (inactive) | > 100 µM (inactive) | > 100 µM (inactive) | > 100 µM (inactive) | > 100 µM (inactive) | > 100 µM (inactive) | > 100 µM (inactive) | > 100 µM (inactive) | > 100 µM (inactive) | > 100 µM (inactive) | > 100 µM (inactive) | > 100 µM (inactive) | > 100 µM (inactive) | > 100 µM (inactive) | > 100 µM (inactive) | > 100 µM (inactive)
COc1ccc(NC(=S)c2ccc([N+](=O)[O-])o2)cc1 | 2.01 µM (inactive) | 0.178 µM (active) | 2.06 µM (inactive) | 1.62 µM (inactive) | 3.02 µM (inactive) | 0.386 µM (active) | 1.12 µM (inactive) | 2.03 µM (inactive) | 1.69 µM (inactive) | 0.678 µM (active) | 1.29 µM (inactive) | 1.52 µM (inactive) | 2.29 µM (inactive) | 1.82 µM (inactive) | 3.01 µM (inactive) | 3.17 µM (inactive) | 2.7 µM (inactive) | 2.48 µM (inactive) | 3.44 µM (inactive) | 0.927 µM (active)
CC(C)N(C)C(=O)C12C3C4C1C1C2C3C41C#N (stereo not given) | > 100 µM (inactive) | > 100 µM (inactive) | > 100 µM (inactive) | > 100 µM (inactive) | > 100 µM (inactive) | > 100 µM (inactive) | > 100 µM (inactive) | > 100 µM (inactive) | > 100 µM (inactive) | > 100 µM (inactive) | > 100 µM (inactive) | > 100 µM (inactive) | > 100 µM (inactive) | > 100 µM (inactive) | > 100 µM (inactive) | > 100 µM (inactive) | > 100 µM (inactive) | > 100 µM (inactive) | > 100 µM (inactive) | > 100 µM (inactive)
CC(NNC(=O)c1cc[n+]([BH2-]C#N)cc1)c1ccc(Cl)c(Cl)c1 (stereo not given) | 24.3 µM (inactive) | 38.9 µM (inactive) | 34.8 µM (inactive) | 42.6 µM (inactive) | 41.3 µM (inactive) | 18.9 µM (inactive) | 28.9 µM (inactive) | 30 µM (inactive) | 32.2 µM (inactive) | 30.5 µM (inactive) | 21.3 µM (inactive) | 32.1 µM (inactive) | 35.2 µM (inactive) | 38.5 µM (inactive) | 23.3 µM (inactive) | 37.8 µM (inactive) | 36.3 µM (inactive) | 24.8 µM (inactive) | 18.1 µM (inactive) | 36 µM (inactive)
